From US9980967B1, “Method for overcoming drug resistance of EGFR mutation and cancerous stemness of human non-small cell lung carcinoma” (NATIONAL CHIAO TUNG UNIVERSITY, priority 2017, dated 2018)

Legend:
H1975 xenograft tumors = experiment: Xenografted human NSCLC (H1975) tumors in nude mice; type: in vivo; conditions: 30 mg/kg once per four days, during the treatment period
Text: The results were obtained from twelve mice and the bar represents the mean±S.E.M.**p<0.01, indicating significant difference between control and SP101 treatment group mice. ###p<0.001 indicates significant differences between SP101 and Gefitinib-treated mice.
The tumor weight was means±*p<0.05 indicating significant differences between control and SP101 treatment group mice. #p<0.05 indicates significant differences between SP101 and Gefitinib-treated mice.
NSCLC tumors in nude mice were established. Seven-week-old nude mice were subcutaneously injected with 3×10^6 H1975 cells. Please refer to FIGS. 7 and 8. After 7 to 10 days inoculation, the nude mice were treated with vehicle or 30 mg/kg SP101 or 30 mg/kg Gefitinib once per four days and tumor sizes in the nude mice were measured every four days. The nude mice were sacrificed after treatment for 16 days; the tumors were harvested to measure tumor volume/weight and further analyze tumor tissues. […] Please refer to FIG. 9.

A549-ON cells = experiment: Annexin V/PI apoptosis flow cytometry in A549-ON cells; type: cell-based, human; conditions: 30 μM, early and late apoptosis, flow cytometry
Experimental: At the end of treatment, apoptosis was measured by Annexin V-PI staining using flow cytometry analysis. The population of Annexin V+/PI− cells represents cells undergoing early apoptosis (low right), whereas the fraction of Annexin V+/PI+ cell are those undergoing late apoptosis (upper right). The representative flow data were shown from one of three separate experiments with similar findings.
The bar represents the mean±S.E.M. ***p<0.001 indicates significant difference between untreated and SP101 or Gefitinib treated samples.
We compared the apoptosis levels of SP101 and Gefitinib in cancer stem-like A549-ON cells by Annexin V and PI staining. Please refer to FIG. 19. […] Please refer to FIG. 20. The average of total apoptosis follows SP101 and Gefitinib in the A549-ON cells around 69.29% and 7.59%, respectively.

## COc1cc2ncnc(Nc3ccc(F)c(Cl)c3)c2cc1OCCCN1CCOCC1 [Gefitinib, reference compound]
H1975 xenograft tumors
  body weight of the nude mice: did not alter
A549-ON cells
  average of total apoptosis: ~7.59%
